The subject of this assay is DSS induced ulcerative colitis. The assay is described as follows: DSS induced chronic colitis (ulcerative colitis) mouse model. Format: in vivo. The protocol:
The current study was conducted in the mice model of dextran Sodium Sulfate (DSS) induced ulcerative colitis (UC). DSS induces chronic colitis in experimental animals when given orally in drinking water for 7 days followed by no DSS in drinking water. Chronic intestinal inflammation is associated with body weight loss, diarrhea, blood in the stool and the infiltration of leucocytes from the blood to intestinal tissue. Among those cells, subpopulations of T lymphocytes such as Th1 and Th17 play an important role in the initiation and chronicity of inflammation. Trafficking of T cells from blood to target tissue is a complex process that is controlled by molecularly distinct adhesion and signaling steps. As such, the α4β7 and MAdCAM-1 adhesion mechanism may be closely involved in lymphocyte trafficking to the site of inflammation in the gut.
Evaluation of the therapeutic potential of the compound of Example 1 (cpd 1) in a mouse model of Dextran Sodium Sulfate (DSS) induced ulcerative colitis (UC)
Female C57BI/6 mice (Charles River, St-Constant, Qc), weighting 15-20 g at delivery were used for this study. Following arrival in the animal facility, all animals were subjected to a general health evaluation. […]
Specific symptoms associated to UC were scored based on the severity of each particular symptoms: • 1- blood in stool (negative hemoccult, positive hemoccult, visible blood traces in stool, rectal bleeding); • 2- stool consistency (normal, soft, diarrhea); • 3- body weight loss (score 0: 0-1 %; 1: 1.5-5%; 2: 5.5-10%; 3: 10.5-15 %; 4: 15.5-20 %; 5: >20%). […]
Once the mouse was euthanized, the colon was collected, and its length was measured. Lesion length was also measured. Colon lesions was scored macroscopically based on inflammation, thickening and vascularization to give an overall macroscopic inflammation score of each animal in the study. […]
Statistical differences among groups were determined using a two-way ANOVA, followed by a post-hoc analysis, using Tukey’s multiple comparison test, to compare each group to the DSS+vehicle control group. […]

Turning to `CC(C)C[C@@H]1NC(=O)c2ccc(-c3ccc(N4CCN(C(=O)c5ccccc5-c5ccccc5C(=O)N5CCN(c6ccc(-c7ccc8cc7CNC(=O)[C@@H]7CCCN7[C@H](C(=O)NC(C)(C)C)[C@H](C)NC(=O)[C@H]([C@@H](C)O)NC(=O)[C@H](CC(=O)O)NC(=O)[C@H](CC(C)C)NC8=O)cc6)CC5)CC4)cc3)c(c2)CNC(=O)[C@@H]2CCCN2[C@H](C(=O)NC(C)(C)C)[C@H](C)NC(=O)[C@H]([C@@H](C)O)NC(=O)[C@H](CC(=O)O)NC1=O` [Example 1, 2,2′-((S,S,S,S,S,S,1^2,8S,11S,14S,17S,18S)-((([1,1′-Biphenyl]-2,2′-Dicarbonyl)-Bis(Piperazine-4,1-Diyl))Bis(4,1-Phenylene))Bis(18-(Tert-Butylcarbamoyl)-14-((R)-1-Hydroxyethyl)-8-Isobutyl-17-Methyl-2,6,9,12,15-Pentaoxo-3,7,10,13,16-Pentaaza-1(2,1)-Pyrrolidina-5(1,3)-Benzenacyclooctadecaphane-5^6,11-Diyl))-Diacetic Acid], the “effect on DAI score” value (100 mg/kg p.o. once daily day 0-14, DSS mice, vs DSS + vehicle) was “did not lead to any beneficial effect”. Moreover, the “macroscopic inflammation score, % less than DSS + vehicle” value (100 mg/kg p.o. once daily day 0-14, colon at day 14, significant difference) is reported as “around 30%”. In addition, the “MPO U/g colon protein, % less than DSS + vehicle” value (100 mg/kg p.o. once daily day 0-14, medio-distal colon, ELISA, not statistically significant) was “approximately 49%”.

Source of the values: US20230295235A1, “COMPOUNDS TARGETING ALPHA4-BETA7 INTEGRIN” (ZEALAND PHARMA A/S, priority 2020, published 2023).
